Reference: patent US20190255042A1, “APPLICATION OF HEDGEHOG PATHWAY INHIBITOR IN TREATING FIBROSIS DISEASES” (IMPACT THERAPEUTICS, INC, priority 2016, published 2019)

Columns and labels:
[1] = test system: unilateral pulmonary fibrosis model in SD rats; assay: Therapeutic efficacy in unilateral pulmonary fibrosis model in SD rats (bleomycin, dosing from D8); format: in vivo; parameters: Evaluation of injury and inflammatory lesions of left lung: Fibrotic lesion edge / Evaluation of injury and inflammatory lesions of left lung: Fibrosis lesion: scale not given here; settings: for Expression of Type I collagen (%) / Expression of α-SMA protein (%): left lung immunohistochemistry; for Expression of Type I collagen (%) / Expression of α-SMA protein (%) / Evaluation of injury and inflammatory lesions of left lung: Fibrosis lesion / Evaluation of injury and inflammatory lesions of left lung: Fibrotic lesion edge / Fibrosis area (left pulmonary) / Fibrosis Score 1-3 (%) / Fibrosis Score 4-8 (%) / Fibrosis score (Ashcraft) / Volume of left lung / Weight of left lung: mean ± sem; for Evaluation of injury and inflammatory lesions of left lung: Fibrosis lesion / Evaluation of injury and inflammatory lesions of left lung: Fibrotic lesion edge: HE score; for Fibrosis area (left pulmonary): Masson trichrome
Procedure: On the modeling day, rats were anesthetized and exposed to trachea. Bleomycin was injected into left trachea of each group (dosage: 3 mg/kg, volume: 1.0 ml/kg). Oral administration was performed on Day 8 after modeling, once a day. On Day 22, according to the KCI animal euthanasia SOP, animals in each group were given an overdose of sodium barbiturate and sacrificed under intraperitoneal anesthesia, the left lung was taken, the weight and volume of the left lung were measured, then fixed by formalin, the bronchioles were stained with HE, Masson trichrome. The bronchioles, final bronchiole and small pulmonary artery injury and inflammation invasion were evaluated by semi-quantitative score, and pulmonary fibrosis was evaluated by Ashcraft semi-quantitative score. Immunohistochemical staining of α-SMA, Type I collagen (Collagen-I) were performed at the same time, a full scan was performed by Hamamatsu NanoZoomer Digital Pathology (S210), the α-SMA positive area was semiquantitatively calculated from the unit area of the whole sheelt in pulmonary fibrosis foci, and the positive staining area of type-I collagent per unit of area was calculated.

[2] = test system: liver fibrosis model in C57BL/6 mice induced by CCl4; assay: Prophylactic therapeutic efficacy in liver fibrosis model in C57BL/6 mice induced by CCl4; format: in vivo
Procedure: 56 male C57BL/6 mice were randomize divided into false Model group (Group 1, n=6), Model group (Group 2, n=10), positive drug Obercholic acid group (Group 3, n=10, 30 mg/kg/d), compound A low-dose group (Group 4, n=10, 5 mg/kg/d), Compound A medium-dose (Group 5, n=10, 10 mg/kg/d), and Compound A high-dose group (Group 6, n=10, 20 mg/kg/d). Oral molding agent for molding three times a week, for 4 weeks, weighing before each dose. Compound A was administered orally once a day for a total of 28 days from the day of modeling. The model group was given an equal volume of drug vehicle and weighed before each dose. All animals fasted for 6 hours from 24 hours after the end of the last dose. Serum was collected and the concentrations of AST, ALT and TBIL in serum were detected. All animals were euthanized, the livers were collected, weighed, and photos of the gross anatomy of the livers were taken. The liver tissue was fixed in 10% formalin solution for histopathological examination, H&E staining and Sirius red staining.

[3] = test system: lung fibrosis model in mice induced by bleomycin; assay: Therapeutic efficacy in lung fibrosis model in mice induced by bleomycin; format: in vivo, C57BL/6 mice; settings: for Percentage of positive α-SMA (%): lung tissue immunohistochemical staining; for Percentage of positive α-SMA (%) / Inflammatory infiltration area / Total lung tissue area / Percentage of inflammatory area (%): n = 10, Mean ± Sem; for Percentage of inflammatory area (%): #<0.05 vs. BLM model group; for inflammatory infiltration area compared with model group: p<0.05
Procedure: Experimental Methods: 60 male C57BL/6 mice were randomize into 6 groups: Blank control group (Group 1, n=10), model group (Group 2, BLM, n=10), Compound A 10 mpk group (Group 3, n=10), compound A 20 mpk group (Group 4, n=10), Compound A 20 mpk +BIBF1120 50 mpk (Group 5, n=10), and BIBF1120 50 mpk positive reference group (Group 6, n=10). One week after the mice were acclimated to the environment, 10 mice in the blank control group were given 50 μl of normal saline in the trachea, and other 50 mice were given 50 μl BLM (0.66 mg/kg, 2 ml/kg) in the trachea. After BLM infusion, 50 mice in BLM infusion group were randomly assigned to start treatment on the 5th day, once a day, with a treatment cycle of 20 days. The whole process was 25 days. After the experiment, the lung tissues were fixed in 10% neutral formalin, dehydrated by alcohol gradient, embedded with paraffin, stained by hematoxylin-eosin (H&E) and Masson trichrome staining. And the inflammatory area and degree of fibrosis of the lung tissues in mice were evaluated by APERIO ScanScope. Immunohistochemical staining of lung tissue was performed to quantify α-SMA positive fibroblasts in lung tissue and to calculate the percentage (%) of α-SMA staining in the entire lung stroma.

[4] = 5 mpk oral D8 to D22 after modeling
[5] = 15 mpk oral D8 to D22 after modeling
[6] = 30 mpk oral D8 to D22 after modeling
[7] = high dose group (20 mg/kg/d), four weeks, p<0.05
[8] = obercholic acid 30 mg/kg/d, compound A 5, 10, 20 mg/kg/d

CC(C)c1cnc(-c2cc(NC(=O)c3ccc(N4C[C@@H](C)N(C)[C@@H](C)C4)cc3C(F)(F)F)ccc2Cl)[nH]1 [Comp A, N-(3-(5-isopropyl-1H-imidazol-2-yl)-4-chlorophenyl)-2-trifluoromethyl-4-((3S,5R)-3,4,5-trimethylpiperazin-1-yl)benzamide]
percentage of α-SMA protein compared with model group ([1]; 30 mg/kg/d): significantly decreased | percentage of Type-I collagen protein ([1]; 30 mg/kg/d and 15 mg/kg/d, no statistical significance): decreased | dose dependence of α-SMA protein expression ([1]; 5, 15, 30 mg/kg/d): significant dose dependence | Expression of Type I collagen (%) ([1]; 5 mpk oral D8 to D22, n = 5): 18.76 ± 2.54% | Expression of α-SMA protein (%) ([1]; 5 mpk oral D8 to D22, n = 5): 8.06 ± 0.59% | Evaluation of injury and inflammatory lesions of left lung: Fibrosis lesion [1, 4]: 6.75 ± 0.40 | Evaluation of injury and inflammatory lesions of left lung: Fibrotic lesion edge [1, 4]: 4.90 ± 0.15 | Fibrosis area (left pulmonary) [1, 4]: 70.61 ± 5.23 | Fibrosis Score 1-3 (%) [1, 4]: 88.00 ± 5.83% | Fibrosis Score 4-8 (%) [1, 4]: 12.00 ± 5.83% | Fibrosis score (Ashcraft) [1, 4]: 2.44 ± 0.11 | Volume of left lung [1, 4]: 1.34 ± 0.14 cm^3 | Weight of left lung [1, 4]: 1.60 ± 0.33 g | damage and inflammatory response of terminal bronchioles within fibrosis lesions and pulmonary small artery compared with model group ([1]; 14 consecutive days, BIBF1120 100, Compound A 5, 15, 30, GDC0449 50 mg/kg/d, p<0.001): significantly reduced | Expression of Type I collagen (%) ([1]; 15 mpk oral D8 to D22, n = 7): 16.48 ± 0.93% | Expression of α-SMA protein (%) ([1]; 15 mpk oral D8 to D22, n = 7): 7.30 ± 0.84% | Evaluation of injury and inflammatory lesions of left lung: Fibrosis lesion [1, 5]: 6.89 ± 0.34 | Evaluation of injury and inflammatory lesions of left lung: Fibrotic lesion edge [1, 5]: 4.82 ± 0.24 | Fibrosis area (left pulmonary) [1, 5]: 71.16 ± 2.81 | Fibrosis Score 1-3 (%) [1, 5]: 91.43 ± 1.43% | Fibrosis Score 4-8 (%) [1, 5]: 8.57± 1.43% | Fibrosis score (Ashcraft) [1, 5]: 2.44 ± 0.07 | Volume of left lung [1, 5]: 1.41 ± 0.21 cm^3 | Weight of left lung [1, 5]: 1.40 ± 0.21 g | Expression of Type I collagen (%) ([1]; 30 mpk oral D8 to D22, n = 7): 16.77 ± 2.03% | Expression of α-SMA protein (%) ([1]; 30 mpk oral D8 to D22, n = 7, **p<0.01 vs. Model group): 4.96 ± 0.26** % | Evaluation of injury and inflammatory lesions of left lung: Fibrosis lesion [1, 6]: 7.03 ± 0.18 | Evaluation of injury and inflammatory lesions of left lung: Fibrotic lesion edge [1, 6]: 4.95 ± 0.20 | Fibrosis area (left pulmonary) [1, 6]: 71.27 ± 3.21 | Fibrosis Score 1-3 (%) [1, 6]: 84.29 ± 4.81% | Fibrosis Score 4-8 (%) [1, 6]: 15.71 ± 4.81% | Fibrosis score (Ashcraft) [1, 6]: 2.47 ± 0.16 | Volume of left lung [1, 6]: 1.40 ± 0.09 cm^3 | Weight of left lung [1, 6]: 1.44 ± 0.14 g | degree of pulmonary fibrosis (Ashcraft score) compared with model group ([1]; BIBF1120 100, Compound A 5, 15, 30, GDC0449 50 mg/kg/d, p<0.01): significantly better | amount of Type I collagen deposition in the fibrotic lesions compared with model group ([1]; BIBF1120 100 mpk, Compound A 5 mpk, GDC0449 50 mpk): no significant difference | serum ALT, AST, and TBIL ([2]; 5 mg/kg, 10 mg/kg, and 20 mg/kg daily for four consecutive weeks): Slight reductions | effect on the inflammatory response of liver tissue ([2]; 5, 10, 20 mg/kg daily for four weeks): little effect | dose-dependent ALT and AST ([2]; 5, 10, 20 mg/kg/d, four weeks): decreasing trend | hepatocellular degeneration, necrosis and inflammatory cell infiltration ([2]; Compound A treatment groups 5, 10, 20 mg/kg/d): tendency to reduce | TBIL compared with model group ([2]; Compound A, four weeks of treatment): not significantly decreased | liver weight ([2]; after 4 weeks, compared with false model group, Obercholic acid 30 mg/kg/d, Compound A 5, 10, 20 mg/kg/d): no significant increase | area of liver tissue fibrosis ([2]; compound A dose groups, model group 1.2%, no statistical difference): 0.8% | changes of liver surface compared with model group ([2]; gross liver after 4 weeks, Obercholic acid 30 mg/kg/d, compound A 5, 10, 20 mg/kg/d): slightly alleviated | ALT compared with model group [2, 7]: significantly lower | AST compared with model group [2, 7]: significantly lower | body weight ([2]; high-dose group 20 mg/kg, significant difference from the other groups): no significant body weight growth | hepatic fibrosis area (Sirius red staining) compared with model group [2, 8]: no significant difference | total score of liver cell injury compared with model group [2, 8]: not significantly different | liver injury score ([2]; three dose groups (5, 10, 20 mg/kg), model group 6 points): 4-5 points | Percentage of positive α-SMA (%) ([3]; 10 mpk oral D5 to D25): 0.78 ± 0.11% | Inflammatory infiltration area ([3]; 10 mpk oral D5 to D25): 8.80 ± 2.79 mm^2 | Total lung tissue area ([3]; 10 mpk oral D5 to D25): 100.20 ± 3.61 mm^2 | Percentage of inflammatory area (%) ([3]; 10 mpk oral D5 to D25): 9.42 ± 3.35^# % | modified pathological Ashcroft score of pulmonary fibrosis injury compared with model group ([3]; 10 mpk, p<0.01): significantly decreased | inflammatory infiltration area compared with model group ([3]; 10 mpk): significantly decreased | Percentage of positive α-SMA (%) ([3]; 20 mpk oral D5 to D25, ##p < 0.01 vs. Model group): 0.64 ± 0.12^## % | Inflammatory infiltration area ([3]; 20 mpk oral D5 to D25): 7.85 ± 2.28 mm^2 | Total lung tissue area ([3]; 20 mpk oral D5 to D25): 96.41 ± 3.28 mm^2 | Percentage of inflammatory area (%) ([3]; 20 mpk oral D5 to D25): 8.23 ± 2.40^# % | immunohistochemical staining of α-SMA compared with model group ([3]; 20 mpk, p<0.01): significantly decreased | modified pathological Ashcroft score of pulmonary fibrosis injury compared with model group ([3]; 20 mpk, p<0.01): significantly decreased | inflammatory infiltration area compared with model group ([3]; 20 mpk): significantly decreased
